Test results published in patent US10385022B2, “3-amino-pyridines as GPBAR1 agonists” (HOFFMANN-LA ROCHE INC., priority 2011, dated 2019).

biological target: human GPBAR1 receptor (Homo sapiens (Human), UniProt Q8TDU6); test: functional cAMP assay in CHO-dhfr(minus) cells expressing human GPBAR1 receptors; assay type: cell-based; details: CHO-dhfr(minus) cells expressing human GPBAR1, 30 min at 30° C.
Procedure: The final clone was verified by DNA sequence analysis. The plasmid was transfected into CHO cells deficient in dihydrofolate reductase activity (CHO-dhfr-) using Lipofectamine plus (Invitrogen). Clones were isolated in limited dilution conditions and identified by activities in the cAMP assay using lithocholic acid as agonist.
EC50 values were determined using Activity Base analysis (ID Business Solution, Limited). […] Specificity for GPBAR1 was tested in non-transfected CHO cells in the same assay as above.

Sequence of human GPBAR1 receptor (Q8TDU6 whole entry): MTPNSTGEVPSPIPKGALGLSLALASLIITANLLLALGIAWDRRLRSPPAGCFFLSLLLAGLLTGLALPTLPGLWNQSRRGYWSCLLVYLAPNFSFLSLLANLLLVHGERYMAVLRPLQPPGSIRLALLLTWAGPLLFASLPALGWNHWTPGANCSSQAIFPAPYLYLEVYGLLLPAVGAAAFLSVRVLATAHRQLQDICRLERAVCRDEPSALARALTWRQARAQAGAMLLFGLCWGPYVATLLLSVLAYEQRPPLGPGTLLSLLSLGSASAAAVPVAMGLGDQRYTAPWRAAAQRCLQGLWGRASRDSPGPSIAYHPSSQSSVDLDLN

SMILES	EC50 [nM]
COc1cc(-c2ccccc2C)c(N(C)C(=O)c2cc(C(F)(F)F)cc(C(F)(F)F)c2)cn1 [Example 14, N-(6-Methoxy-4-o-tolyl-pyridin-3-yl)-N-methyl-3,5-bis-trifluoromethyl-benzamide]	395
Cc1cc(-c2cc(F)ccc2C)c(N(C)C(=O)c2cc(C(F)(F)F)cc(S(C)(=O)=O)c2)cn1 [Example 264, N-[4-(5-Fluoro-2-methyl-phenyl)-6-methyl-pyridin-3-yl]-3-methanesulfonyl-N-methyl-5-trifluoromethyl-benzamide]	2410
Cc1cn[nH]c1-c1ccncc1N(C)C(=O)c1cc(C(F)(F)F)cc(C(F)(F)F)c1 [Example 211, N-Methyl-N-[4-(4-methyl-2H-pyrazol-3-yl)-pyridin-3-yl]-3,5-bis-trifluoromethyl-benzamide]	959
COc1cc(F)ccc1-c1cc(C)ncc1N(C)C(=O)c1cc(C(F)(F)F)cc(S(=O)(=O)N2CCOCC2)c1 [Example 302, N-[4-(4-Fluoro-2-methoxy-phenyl)-6-methyl-pyridin-3-yl]-N-methyl-3-(morpholine-4-sulfonyl)-5-trifluoromethyl-benzamide]	> 10000
COc1ccc(F)cc1-c1ccncc1N(CC(N)=O)C(=O)c1cc(C(F)(F)F)cc(S(C)(=O)=O)c1 [Example 309, N-Carbamoylmethyl-N-[4-(5-fluoro-2-methoxy-phenyl)-pyridin-3-yl]-3-methanesulfonyl-5-trifluoromethyl-benzamide]	273
CNC(=O)CN(C(=O)c1cc(C(F)(F)F)cc(C(F)(F)F)c1)c1cnccc1-c1ccccc1Cl [Example 102, N-[4-(2-Chloro-phenyl)-pyridin-3-yl]-N-methylcarbamoylmethyl-3,5-bis-trifluoromethyl-benzamide]	144
CN(C(=O)c1cc(C(F)(F)F)cc(C(F)(F)F)c1)c1cnccc1-c1cccnc1OCC(F)(F)F [Example 106, N-Methyl-N-[2-(2,2,2-trifluoro-ethoxy)-[3,4′]bipyridinyl-3′-yl]-3,5-bis-trifluoromethyl-benzamide]	43
COc1cc(F)ccc1-c1ccncc1N(C)C(=O)c1cc(CCC(N)=O)cc(C(F)(F)F)c1 [Example 281, 3-(2-Carbamoyl-ethyl)-N-[4-(4-fluoro-2-methoxy-phenyl)-pyridin-3-yl]-N-methyl-5-trifluoromethyl-benzamide]	574
COc1cc(F)ccc1-c1ccncc1N(C)C(=O)c1cc(SC2COC2)cc(C(F)(F)F)c1 [Example 251, N-[4-(4-Fluoro-2-methoxy-phenyl)-pyridin-3-yl]-N-methyl-3-(oxetan-3-ylsulfanyl)-5-trifluoromethyl-benzamide]	30
CN(C(=O)c1cc(C(F)(F)F)cc(S(C)(=O)=O)c1)c1cnccc1-c1ccccc1OC(F)(F)F [Example 274, 3-Methanesulfonyl-N-methyl-N-[4-(2-trifluoromethoxy-phenyl)-pyridin-3-yl]-5-trifluoromethyl-benzamide]	34
COc1cc(F)ccc1-c1ccncc1N(C)C(=O)c1cc(C(F)(F)F)cc(S(=O)(=O)C2COC2)c1 [Example 255, N-[4-(4-Fluoro-2-methoxy-phenyl)-pyridin-3-yl]-N-methyl-3-(oxetane-3-sulfonyl)-5-trifluoromethyl-benzamide]	53
CN(C(=O)c1cc(C(F)(F)F)cc(C(F)(F)F)c1)c1cnccc1-c1ccccc1OC(F)(F)F [Example 31, N-Methyl-N-[4-(2-trifluoromethoxy-phenyl)-pyridin-3-yl]-3,5-bis-trifluoromethyl-benzamide]	29
COc1cc(F)ccc1-c1ccncc1N(C)C(=O)c1cc(C(F)(F)F)cc(S(=O)(=O)C2CN(S(N)(=O)=O)C2)c1 [Example 292, N-[4-(4-Fluoro-2-methoxy-phenyl)-pyridin-3-yl]-N-methyl-3-(1-sulfamoyl-azetidine-3-sulfonyl)-5-trifluoromethyl-benzamide]	88
CN(C(=O)c1cc(C(F)(F)F)cc(C(F)(F)F)c1)c1cnccc1-c1cccc(Cl)n1 [Example 71, N-(6-Chloro-[2,4′]bipyridinyl-3′-yl)-N-methyl-3,5-bis-trifluoromethyl-benzamide]	1540
Cc1ccccc1-c1ccncc1N(C)C(=O)c1ccc(C)c(C(F)(F)F)c1 [Example 91, 4,N-Dimethyl-N-(4-o-tolyl-pyridin-3-yl)-3-trifluoromethyl-benzamide]	152
CN(C)C(=O)CN(C(=O)c1cc(C(F)(F)F)cc(C(F)(F)F)c1)c1cnccc1-c1ccccc1Cl [Example 118, N-[4-(2-Chloro-phenyl)-pyridin-3-yl]-N-dimethylcarbamoylmethyl-3,5-bis-trifluoromethyl-benzamide]	2470
COc1cccc(-c2ccncc2N(C)C(=O)c2cc(C(F)(F)F)cc(C(F)(F)F)c2)c1F [Example 62, N-[4-(2-Fluoro-3-methoxy-phenyl)-pyridin-3-yl]-N-methyl-3,5-bis-trifluoromethyl-benzamide]	337

SMILES	EC50 [nM]
COc1cc(F)ccc1-c1ccncc1N(Cc1ncco1)C(=O)c1cc(C(F)(F)F)cc(S(C)(=O)=O)c1 [Example 22, N-[4-(4-Fluoro-2-methoxy-phenyl)-pyridin-3-yl]-3-methanesulfonyl-N-oxazol-2-ylmethyl-5-trifluoromethyl-benzamide]	35
COC(=O)CN(C(=O)c1cc(C(F)(F)F)cc(S(C)(=O)=O)c1)c1cnccc1-c1ccccc1Cl [Example 289, [[4-(2-Chloro-phenyl)-pyridin-3-yl]-(3-methanesulfonyl-5-trifluoromethyl-benzoyl)-amino]-acetic acid methyl ester]	275
CN(C(=O)c1cc(C(F)(F)F)cc(C(F)(F)F)c1)c1cnccc1C1=CCOCC1 [Example 166, N-[4-(3,6-Dihydro-2H-pyran-4-yl)-pyridin-3-yl]-N-methyl-3,5-bis-trifluoromethyl-benzamide]	1780
CS(=O)(=O)c1cc(C(=O)N(CC(F)(F)F)c2cnccc2-c2ccccc2OC(F)(F)F)cc(C(F)(F)F)c1 [Example 298, 3-Methanesulfonyl-N-(2,2,2-trifluoro-ethyl)-N-[4-(2-trifluoromethoxy-phenyl)-pyridin-3-yl]-5-trifluoromethyl-benzamide]	788
COc1cc(F)ccc1-c1ccncc1N(CC1CCCO1)C(=O)c1cc(C(F)(F)F)cc(S(C)(=O)=O)c1 (single isomer, unassigned; (-)) [Example 233, (−)-N-[4-(4-Fluoro-2-methoxy-phenyl)-pyridin-3-yl]-3-methanesulfonyl-N-[1-(tetrahydro-furan-2-yl)methyl]-5-trifluoromethyl-benzamide]	54
Cc1ccc(C(=O)O)cc1-c1ccncc1N(C)C(=O)c1cc(C(F)(F)F)cc(C(F)(F)F)c1 [Example 84, 3-{3-[(3,5-Bis-trifluoromethyl-benzoyl)-methyl-amino]-pyridin-4-yl}-4-methyl-benzoic acid]	2020
COc1cc(F)ccc1-c1cc(C)ncc1N(C)C(=O)c1cc(C(F)(F)F)cc(S(=O)(=O)CCCCC(=O)NCC(=O)O)c1 [Example 317, [5-(3-{[4-(4-Fluoro-2-methoxy-phenyl)-6-methyl-pyridin-3-yl]-methyl-carbamoyl}-5-trifluoromethyl-benzenesulfonyl)-pentanoylamino]-acetic acid]	418
COCCOc1cc(C(=O)N(C)c2cnccc2-c2ccc(F)cc2OC)cc(C(F)(F)F)c1 [Example 236, N-[4-(4-Fluoro-2-methoxy-phenyl)-pyridin-3-yl]-3-(2-methoxy-ethoxy)-N-methyl-5-trifluoromethyl-benzamide]	886
COc1cccc(-c2ccncc2N(C)C(=O)c2cc(C(F)(F)F)cc(C(F)(F)F)c2)n1 [Example 98, N-(6-Methoxy-[2,4′]bipyridinyl-3′-yl)-N-methyl-3,5-bis-trifluoromethyl-benzamide]	109
COc1ccc(F)cc1-c1ccncc1N(C)C(=O)c1cc(C(F)(F)F)cc(C(F)(F)F)c1 [Example 58, N-[4-(5-Fluoro-2-methoxy-phenyl)-pyridin-3-yl]-N-methyl-3,5-bis-trifluoromethyl-benzamide]	26
COc1cc(F)ccc1-c1ccncc1N(C)C(=O)c1cc(C(F)(F)F)cc(S(=O)(=O)C2CN(S(C)(=O)=O)C2)c1 [Example 282, N-[4-(4-Fluoro-2-methoxy-phenyl)-pyridin-3-yl]-3-(1-methanesulfonyl-azetidine-3-sulfonyl)-N-methyl-5-trifluoromethyl-benzamide]	69
COc1cc(F)c(Cl)cc1-c1cc(C)ncc1N(C)C(=O)c1cc(C(F)(F)F)cc(S(=O)(=O)CCCCC(=O)O)c1 [Example 316, 5-(3-{[4-(5-Chloro-4-fluoro-2-methoxy-phenyl)-6-methyl-pyridin-3-yl]-methyl-carbamoyl}-5-trifluoromethyl-benzenesulfonyl)-pentanoic acid]	926
Cc1ccccc1-c1ccncc1N(C)C(=O)c1ccc(F)c(C(F)(F)F)c1 [Example 5, 4-Fluoro-N-methyl-N-(4-o-tolyl-pyridin-3-yl)-5-trifluoromethyl-benzamide]	112
Cc1ccccc1-c1ccncc1N(C)C(=O)c1cc(C(F)(F)F)cc(S(C)(=O)=O)c1 [Example 114, 3-Methanesulfonyl-N-methyl-N-(4-o-tolyl-pyridin-3-yl)-5-trifluoromethyl-benzamide]	30
COc1cc(F)ccc1-c1ccncc1N(C)C(=O)c1cc(SC2CN(C(=O)OC(C)(C)C)C2)cc(C(F)(F)F)c1 [Example 268, 3-(3-{[4-(4-Fluoro-2-methoxy-phenyl)-pyridin-3-yl]-methyl-carbamoyl}-5-trifluoromethyl-phenylsulfanyl)-azetidine-1-carboxylic acid tert-butyl ester]	768
COC(=O)CCSc1cc(C(=O)N(C)c2cnccc2-c2ccc(F)cc2OC)cc(C(F)(F)F)c1 [Example 225, 3-(3-{[4-(4-Fluoro-2-methoxy-phenyl)-pyridin-3-yl]-methyl-carbamoyl}-5-trifluoromethyl-phenylsulfanyl)-propionic acid methyl ester]	241
